Reference: patent US5489580A, “Phospholipid compounds and use therefor” (University of Connecticut, priority 1992, dated 1996)
Values after ≈ are worked out from the molar mass of the structure shown.

Legend:
Type in all cases: cell-based
[1] = tested on: HUT 78 leukemic cell line; assay: LDH release cytotoxicity assay, HUT 78; conditions: Homo sapiens, HuT78, 5×10^5 cells/mL, 10% fetal calf serum, incubation 2, 4, 8 and 24 hours, time of ID50 not given
Protocol: (§1) The compounds of the present invention were tested for their cytotoxic effects upon various leukemic cell lines. The effectiveness of each of the compounds tested was measured through assessing the leakage of the cytosolic enzyme, lactic dehydrogenase (LDH), from the leukemia cells into the media following incubation with the compound.
(§2) The LDH release assay used was a modified microtiter plate enzyme linked immunosorbent assay LDH release assay. Seven mg of each phospholipid compound to be tested was completely dissolved in separate 700 μL volumes of 100% ethanol. The ethanolic solutions were then diluted to form stock solutions by the addition of 70 mL RPMI complete medium until the concentration of phospholipid in each solution was lowered to about 100 μg/mL. An RPMI complete medium contains a RPMI 1640 medium, without red phenol, 20 mM Hepes buffer, 2 mM L-glutamine, 50 μM 2-mercaptoethanol and 20% of fetal calf serum. To form an ethanol control, a 350 μL aliquot of ethanol was added to a small glass bottle containing 35 mL of RPMI complete medium.
(§3) Each stock solution was mixed by magnetic stirring bar at room temperature for one hour and then filtered through a 0.22 μm Millipore filter, where the filter was pre-rinsed with 0.6 mL of RPMI complete medium. The stock solutions were subsequently placed in a shaker in a cold room overnight and subsequently stored in small glass bottles wrapped with aluminum foil at 4° C.
(§4) Each stock solution was shaken for 30 minutes at room temperature. Then each phospholipid stock solution was separately diluted, in small glass vials, with RPMI complete medium to form solutions with phospholipid concentrations of 80 μg, 40 μg, 20 μg and 10 μg.
(§5) For each cell line, the leukemia cells were removed from the culture flask, put into a 50 mL conical tube, centrifuged at 500 rpm for 10 minutes and then washed once with fresh RPMI 1640 medium.
(§6) Aliquots (0.4 mL) of each 100 μg, 80 μg, 40 μg, 20 μg and 10 μg phospholipid solution were added to small vials containing 0.4 mL of cell suspension to form test solutions with phospholipid concentrations of 50, 40, 20, 10 and 5 μg/mL; cell densities of 5×10^5 cells/mL; and 10% fetal calf serum in RPMI complete medium. For an ethanol control group, an aliquot of 0.4 mL of the ethanol control was mixed with 0.4 mL of cell suspension to form a control group with an ethanol concentration of 0.495% and a cell density of 5×10^5 cells/mL. For a negative control group, a 0.4 mL aliquot of RPMI complete medium was added to 0.4 mL of cell suspension to give a cell density of 5×10^5 cells/mL. For a positive control group, cell suspension was diluted with RPMI 1640 medium, which contained 10% fetal calf serum, 20 mM Hepes buffer, 2 mM L-glutamine and 2-mercaptoethanol and stored overnight at -70° C.
(§7) Aliquots (0.2 mL) of each test solution and control group were added to flat bottomed Linbro microtiter plates, in triplicate, and incubated for 2, 4, 8 and 24 hours. Following incubation, the plates were centrifuged at 500 rpm for 5 minutes. Supernatant aliquots of 0.1 mL were then transferred to separate wells on an optic-clear, flat-bottomed microtiter plate. A volume of 0.1 mL of an LDH substrate mixture, containing 5.4×10^-2 M L(+)-lactate, 6.6×10^-4 MINT, provided by Sigma Chemical Company, 2.8×10^-4 M PMS, and 1.3×10^-3M NAD in a 0.2 M Tris buffer of pH 8.2, was added to each well. A Linbro-Titertek Company Lambda microtiter plate reader was used to monitor the absorbance at 490 nm.
(§8) The cytotoxic effectiveness of each compound tested, as provided in Table I, is described in terms of the ID50 of the drug. The ID50 is the concentration of the compound tested that is required to produce a cytotoxicity that is 50% of the control's cytotoxicity.

[2] = tested on: NAMALWA leukemic cell line; assay: LDH release cytotoxicity assay, NAMALWA; conditions: 5×10^5 cells/mL, 10% fetal calf serum, incubation 2, 4, 8 and 24 hours, time of ID50 not given
Protocol: as §1, §2, §3, §4, §5, §6, §7, §8

CEM leukemic cell line = assay: LDH release cytotoxicity assay, CEM; conditions: 5×10^5 cells/mL, 10% fetal calf serum, incubation 2, 4, 8 and 24 hours, time of ID50 not given
Protocol: as §1, §2, §3, §4, §5, §6, §7, §8

HL60 leukemic cell line = assay: LDH release cytotoxicity assay, HL60; conditions: Homo sapiens, HL-60, 5×10^5 cells/mL, 10% fetal calf serum, incubation 2, 4, 8 and 24 hours, time of ID50 not given
Protocol: as §1, §2, §3, §4, §5
Aliquots (0.4 mL) of each 100 μg, 80 μg, 40 μg, 20 μg and 10 μg phospholipid solution were added to small vials containing 0.4 mL of cell suspension to form test solutions with phospholipid concentrations of 50, 40, 20, 10 and 5 μg/mL; cell densities of 5×10^5 cells/mL; and 10% fetal calf serum in RPMI complete medium. For an ethanol control group, an aliquot of 0.4 mL of the ethanol control was mixed with 0.4 mL of cell suspension to form a control group with an ethanol concentration of 0.495% and a cell density of 5×10^5 cells/mL. […]
Aliquots (0.2 mL) of each test solution and control group were added to flat bottomed Linbro microtiter plates, in triplicate, and incubated for 2, 4, 8 and 24 hours. […] A Linbro-Titertek Company Lambda microtiter plate reader was used to monitor the absorbance at 490 nm. […]

Structure (SMILES)	IC50 [1]	IC50 [2]	IC50 (CEM leukemic cell line)	IC50 (HL60 leukemic cell line)
CCCCCCCCCCCCCCCCCCOCC(COP(=O)([O-])OCC[N+]1(C)CCCC1)OC (stereo not drawn) [2-O-Methyl-1-O-octadecylglycero-3-phospho-(β-(N-methylpyrrolidino))ethanol]	13 µg/mL (≈ 23.6 µM)	17.5 µg/mL (≈ 31.8 µM)	3.4 µg/mL (≈ 6.18 µM)	–
CCCCCCCCCCCCCCCCC[C@@H]1CO[C@@H](COP(=O)([O-])OCC[N+](C)(C)C)CO1 [(2R,5R)-(5-heptadecyl-1,4-dioxan-2-yl) methyloxyphosphocholine]	–	4 µg/mL (≈ 7.67 µM)	4 µg/mL (≈ 7.67 µM)	4 µg/mL (≈ 7.67 µM)
CCCCCCCCCCCCCCCCCCOCC(COP(=O)([O-])OCC[N+]1(C)CCOCC1)OC (stereo not drawn) [2-O-Methyl-1-O-octadecylglycero-3-phospho-(β-(N-methylmorpholino))ethanol]	6.6 µg/mL (≈ 11.7 µM)	11 µg/mL (≈ 19.4 µM)	3.6 µg/mL (≈ 6.36 µM)	–
CCCCCCCCCCCCCCCCCCOC[C@H](COP(=O)([O-])OC[C@H](C)[N+](C)(C)C)OC [(2R,βS)-2-O-Methyl-1-O-octadecyl-sn-glycero-3-phospho-(β-methyl)choline]	6.6 µg/mL (≈ 12.3 µM)	12.8 µg/mL (≈ 23.8 µM)	2.85 µg/mL (≈ 5.3 µM)	–
CCCCCCCCCCCCCCCCCCOC[C@H](COP(=O)([O-])OC[C@@H](C)[N+](C)(C)C)OC [(2R,βR)-2-O-Methyl-1-O-octadecyl-sn-glycero-3-phospho-(β-methyl)choline]	11.2 µg/mL (≈ 20.8 µM)	13.5 µg/mL (≈ 25.1 µM)	3.3 µg/mL (≈ 6.14 µM)	–
CCCCCCCCCCCCCCCCC[C@H]1CO[C@H](COP(=O)([O-])OCC[N+](C)(C)C)CO1 [(2S,5S)-(5-heptadecyl-1,4-dioxan-2-yl)methyloxyphosphocholine]	–	< 2 µg/mL	< 2 µg/mL	< 2 µg/mL
CCCCCCCCCCCCCCCCCCOC[C@H](COP(=O)([O-])O[C@H](C)C[N+](C)(C)C)OC [(2R,αR)-2-O-Methyl-1-O-octadecyl-sn-glycero-3-phospho-(α-methyl)choline]	21 µg/mL (≈ 39.1 µM)	22 µg/mL (≈ 40.9 µM)	5.6 µg/mL (≈ 10.4 µM)	–
CCCCCCCCCCCCCCCCC[C@H]1CO[C@@H](COP(=O)([O-])OCC[N+](C)(C)C)CO1 [(2R,5S)-(5-heptadecyl-1,4-dioxan-2-yl)methyloxyphosphocholine]	–	< 2 µg/mL	< 2 µg/mL	< 2 µg/mL
CCCCCCCCCCCCCCCCCCOC[C@H](COP(=O)(O)O)OC [(R)-2-O-Methyl-1-O-octadecyl-sn-glycero-3-phosphoric acid]	3 µg/mL (≈ 6.84 µM)	24 µg/mL (≈ 54.7 µM)	2.95 µg/mL (≈ 6.73 µM)	–
CCCCCCCCCCCCCCCCCCOC[C@H](COP(=O)([O-])O[C@@H](C)C[N+](C)(C)C)OC [(2R,αS)-2-O-Methyl-1-O-octadecyl-sn-glycero-3-phospho-(α-methyl)choline]	15.2 µg/mL (≈ 28.3 µM)	21.5 µg/mL (≈ 40 µM)	4.5 µg/mL (≈ 8.37 µM)	–
CCCCCCCCCCCCCCCCC[C@@H]1CO[C@H](COP(=O)([O-])OCC[N+](C)(C)C)CO1 [(2S,5R)-(5-heptadecyl-1,4-dioxan-2-yl)methyloxyphosphocholine]	–	4 µg/mL (≈ 7.67 µM)	4 µg/mL (≈ 7.67 µM)	4 µg/mL (≈ 7.67 µM)
